Patent publication US20110268789A1, “USE OF PITUITARY ADENYLATE CYCLASE-ACTIVATING POLYPEPTIDE (PACAP) AND PACAP ANALOGS AS ADJUNCTIVE TREATMENTS WITH ANTICANCER AGENTS” (priority 2008, published 2011)

Columns and labels:
[1] = system: HK-2 human kidney cells; experiment: Cisplatin-induced apoptotic cell death of human renal proximal tubule epithelial cells (histone-associated DNA fragmentation); format: cell-based; details: HK-2 cells
Protocol: (§1) The HK-2 human kidney cells were cultured in Keratinocyte-Serum Free Medium supplemented with recombinant epidermal growth factor and bovine pituitary extract. The dose-dependent inhibitory effect of PACAP38 on apoptotic cell death was assessed by the quantitative determination of cytoplasmic histone-associated DNA-fragmentation (mono- and oligonucleosomes) after exposure to cisplatin for 24 hours. Each value represents the mean plus/minus the standard error of four determinations in three replicate experiments. **p<0.01 compared to the cisplatin-treated (control) cells.
as §1, with “deviation” for “error”, “different” for “replicate”, “**p<0.01 and *p<0.05” for “**p<0.01”

[2] = system: Four-vessel occlusion in the rat; details: cited from earlier work

In the case of PACAP38, the “reduction in cisplatin-induced apoptotic cell death” value ([1]; cisplatin 24 hours, peptide added to the medium, FIG. 3) was “significant dose-dependent reduction”, the “relative effectiveness as protectants against cisplatin-induced apoptotic cell death” value ([1]; comparable concentrations, FIG. 4) was “similarly effective” and the “prevention of apoptotic cell death caused by cisplatin” value ([1]; highest dose tested) was “almost completely prevented”. For the same substance, the “reduction in the number of CA1 pyramidal cells at day 7 post-occlusion” value ([2]; 16 pmol/hr or 160 pmol/hr i.v. for 6 days beginning 24 hours after occlusion) was “significantly reversed” and the “side-effects during 6 days continuous infusion” value ([2]; 16 pmol/hr or 160 pmol/hr i.v.) was “no obvious side-effects”.
